Measurements taken from patent US10683121B2, “Method for preparation of research organisms” (BIOSYSTEMS TECHNOLOGY LIMITED, priority 2015, dated 2020).
Read-outs that look alike come from different tables or passages of the source.

Key:
[1] = tested on: culturable microorganisms on the surface of G. mellonella larvae; test: Measurement of surface contamination of larvae after alcohol decontamination (PBS wash plated on LB agar); assay type: cell-based; settings: for percentage reduction in surface contaminants compared to control: n=10 (FIG. 1)
Description: Individual G. mellonella larva from groups of 10 were immersed thrice into 1 ml of PBS using sterilised forceps. The PBS wash was serially diluted, plated onto Luria Broth (LB) agar and incubated at 37° C. for 24 h. Any colonies of organisms visible after this period were counted. They may optionally be identified to species level, for example by use of 16S RNA sequencing. Ethanol was diluted with sterile water to 70% or 50% (v/v). We tested two different decontamination techniques. […] To assess the microbial flora after decontamination, we used the PBS washing method outlined above. Using the “bath” method, different lengths of time for decontamination were tested. […] The PBS was plated on LB agar; plates and G. mellonella larvae were incubated at 37° C. for 24 h. The health of larvae was monitored and contaminants on the plates counted. Further concentrations and decontamination treatment periods were studied. In each case, ten Galleria larvae were used, placed into a sterile mesh tray and immersed using the “dip” method into isopropyl alcohol, methanol or ethanol, prepared to varying concentrations by dilution with sterile water as described above. The treatment conditions were: Larvae were patted dry on paper towel and grasped with sterile forceps dip larvae individually into PBS three times, for measurement of surface contamination as described above.

G. mellonella larvae [2] = settings: single 20 s bath exposure to 50% (v/v), 24 hours
Description: Final instar G. mellonella larvae were obtained from Live Foods UK and kept on woodchip at 15° C. until use. The larvae were used within two weeks of arrival. The Galleria larvae were screened for colour, weight and size before use. Larvae in a weight range between 0.2-0.3 g and light cream in colour were selected for experiments. Injections were carried out using a Hamilton syringe with 5 μl dispenser; 10 μl of inoculum was used per larva in each injection. The injection was performed into the right foreleg. Phosphate Buffer Saline (PBS, pH 7.2) was used as a control inoculum as it should not kill or harm the larvae.
We injected larvae with PBS before or after decontamination. […] For the second group, only 10 μl PBS was injected into the right foreleg, with no preliminary decontamination. All larvae were placed into an incubator at 37° C. for 24 h and monitored for health and survival.
Finally, we investigated whether decontamination of the larvae improved the survival of larvae which were subsequently injected with PBS. […] These larvae were dried and then injected 10 μl PBS into the right foreleg. The larvae were placed at 37° C. and survival recorded over the next 24 hours.

G. mellonella larvae [3] = settings: in vivo
Description: The larvae were used within two weeks of arrival. […] Larvae in a weight range between 0.2-0.3 g and light cream in colour were selected for experiments. […] The injection was performed into the right foreleg.
Using the “bath” method, different lengths of time for decontamination were tested. Using sterile tweezers each larvae was rolled in 20 ml of 50% ethanol for 10 s, 20 s, 30 s or 60 s, patted dry with blue roll and dipped in sterile PBS. The PBS was plated on LB agar; plates and G. mellonella larvae were incubated at 37° C. for 24 h. The health of larvae was monitored and contaminants on the plates counted.
Further concentrations and decontamination treatment periods were studied. In each case, ten Galleria larvae were used, placed into a sterile mesh tray and immersed using the “dip” method into isopropyl alcohol, methanol or ethanol, prepared to varying concentrations by dilution with sterile water as described above. The treatment conditions were:
These contaminants can be introduced into the larva haemolymph through the injection point when challenging larvae. We believe that the deaths we have seen in past experiments in control groups challenged with PBS was a consequence of the introduction of this microbial flora into the body cavity of the larvae. Deaths in control groups can make the interpretation of results from test groups difficult. Therefore, the plan in this study was to identify a way of surface decontaminating the larvae, so that deaths in control groups were avoided, and therefore improving the quality of the data obtained from experiments using G. mellonella larvae. Galleria larvae are scored as dead when there is no movement when gently probed with a pipette tip. Colour is also an indicator of a response to infection or injury as such larvae produce melanin which creates a colour change of cream to pale or dark brown (4).

CO [Methanol, methanol]
% reduction in microbial surface contamination ([1]; 50%, 20 s immersion (dip)): 99.0% | % reduction in microbial surface contamination ([1]; 50%, 40 s immersion (dip)): 99.7% | % reduction in microbial surface contamination ([1]; 70%, 20 s immersion (dip)): 99.9% | % reduction in microbial surface contamination ([1]; 70%, 40 s immersion (dip)): 99.9%

CCO [Ethanol, ethanol]
groups of larvae with 100% survival after PBS injection (G. mellonella larvae [2]; 10 μl PBS into right foreleg, 37° C., groups of 10): 19/20 | reduction in deaths versus un-decontaminated larvae injected with PBS (G. mellonella larvae [2]; PBS injection): 83% | larval survival 24 hrs (G. mellonella larvae [3]; Galleria mellonella, 40 %): 10/10 | larval survival 24 hrs (G. mellonella larvae [3]; Galleria mellonella, 50 %): 10/10 | larval survival 24 hrs (G. mellonella larvae [3]; Galleria mellonella, 60 %): 10/10 | larval survival 48 hrs (G. mellonella larvae [3]; Galleria mellonella, 48 h, 40 %): 10/10 | larval survival 48 hrs (G. mellonella larvae [3]; Galleria mellonella, 48 h, 50 %): 10/10 | Observations at 48 h (death) (G. mellonella larvae [3]; Galleria mellonella, 48 h, 50 % (v/v)): 15% death | larval survival 72 hrs (G. mellonella larvae [3]; Galleria mellonella, 40 %): 10/10 | larval survival 72 hrs (G. mellonella larvae [3]; Galleria mellonella, 50 %): 10/10 | Observations at 48 h (G. mellonella larvae [3]): No death or pigment change | % reduction in microbial surface contamination ([1]; 40%, 20 s immersion (dip)): 95.7% | % reduction in microbial surface contamination ([1]; 40%, 40 s immersion (dip)): 99.2% | percentage reduction in surface contaminants compared to control ([1]; 50% ethanol, bath technique): 99.99% | percentage reduction in surface contaminants compared to control ([1]; 50% ethanol, dip technique): 99.99% | % reduction in microbial surface contamination ([1]; 50%, 20 s immersion (dip)): 99.0% | % reduction in microbial surface contamination ([1]; 50%, 40 s immersion (dip)): 98.9% | % reduction in microbial surface contamination ([1]; 50%, 50 s immersion (dip)): 99.4% | % reduction in microbial surface contamination ([1]; 60%, 20 s immersion (dip)): 98.4% | % reduction in microbial surface contamination ([1]; 60%, 40 s immersion (dip)): 99.1% | percentage reduction in surface contaminants compared to control ([1]; 70% ethanol, bath technique): 99.98% | percentage reduction in surface contaminants compared to control ([1]; 70% ethanol, dip technique): 99.52%

CC(C)O [Isopropyl alcohol, isopropanol]
% reduction in microbial surface contamination ([1]; 50%, 20 s immersion (dip)): 99.9% | % reduction in microbial surface contamination ([1]; 50%, 40 s immersion (dip)): 99.9% | % reduction in microbial surface contamination ([1]; 70%, 20 s immersion (dip)): 99.9% | % reduction in microbial surface contamination ([1]; 70%, 40 s immersion (dip)): 99.8%
